Assay results from paper PMC9297976 (Journal of Applied Toxicology, 2021).

How the values were obtained:
medaka ARβ (mArβ) [1] = target: T1, medaka ARβ (mArβ) (Oryzias latipes, UniProt D1MV73); assay: Medaka ARβ reporter gene assay, antagonist assay; type: cell-based, Japanese medaka (Oryzias latipes); conditions: 11‐KT spiked at 50 nM (D); MAC = 1.0 × 10^−5 M
T1 sequence (D1MV73 1-744): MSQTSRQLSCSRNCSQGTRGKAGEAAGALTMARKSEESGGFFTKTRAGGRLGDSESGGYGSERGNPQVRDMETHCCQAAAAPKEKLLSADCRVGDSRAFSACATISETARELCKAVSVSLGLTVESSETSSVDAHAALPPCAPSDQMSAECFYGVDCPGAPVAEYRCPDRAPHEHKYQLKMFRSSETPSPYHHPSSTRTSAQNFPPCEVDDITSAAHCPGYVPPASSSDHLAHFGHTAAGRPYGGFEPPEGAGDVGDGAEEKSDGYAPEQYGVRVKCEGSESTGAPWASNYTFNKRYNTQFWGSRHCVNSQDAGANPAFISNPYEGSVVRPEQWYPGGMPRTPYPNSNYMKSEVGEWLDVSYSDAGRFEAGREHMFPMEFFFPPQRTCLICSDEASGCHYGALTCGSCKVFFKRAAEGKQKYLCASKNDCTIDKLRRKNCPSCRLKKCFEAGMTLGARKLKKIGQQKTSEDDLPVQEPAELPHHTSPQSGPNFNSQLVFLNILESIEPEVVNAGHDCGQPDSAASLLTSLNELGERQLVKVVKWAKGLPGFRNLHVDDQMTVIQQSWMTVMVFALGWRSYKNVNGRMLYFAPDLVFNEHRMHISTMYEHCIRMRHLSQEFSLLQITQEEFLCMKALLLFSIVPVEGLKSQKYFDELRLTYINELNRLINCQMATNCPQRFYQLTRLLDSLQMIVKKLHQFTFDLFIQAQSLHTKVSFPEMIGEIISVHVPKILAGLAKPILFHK

medaka Esr1 (mEsr1) [2] = target: T2, medaka Esr1 (mEsr1) (Oryzias latipes, UniProt P50241); assay: cell-based; design: species or system Japanese medaka (Oryzias latipes)
T2 sequence (P50241 1-620): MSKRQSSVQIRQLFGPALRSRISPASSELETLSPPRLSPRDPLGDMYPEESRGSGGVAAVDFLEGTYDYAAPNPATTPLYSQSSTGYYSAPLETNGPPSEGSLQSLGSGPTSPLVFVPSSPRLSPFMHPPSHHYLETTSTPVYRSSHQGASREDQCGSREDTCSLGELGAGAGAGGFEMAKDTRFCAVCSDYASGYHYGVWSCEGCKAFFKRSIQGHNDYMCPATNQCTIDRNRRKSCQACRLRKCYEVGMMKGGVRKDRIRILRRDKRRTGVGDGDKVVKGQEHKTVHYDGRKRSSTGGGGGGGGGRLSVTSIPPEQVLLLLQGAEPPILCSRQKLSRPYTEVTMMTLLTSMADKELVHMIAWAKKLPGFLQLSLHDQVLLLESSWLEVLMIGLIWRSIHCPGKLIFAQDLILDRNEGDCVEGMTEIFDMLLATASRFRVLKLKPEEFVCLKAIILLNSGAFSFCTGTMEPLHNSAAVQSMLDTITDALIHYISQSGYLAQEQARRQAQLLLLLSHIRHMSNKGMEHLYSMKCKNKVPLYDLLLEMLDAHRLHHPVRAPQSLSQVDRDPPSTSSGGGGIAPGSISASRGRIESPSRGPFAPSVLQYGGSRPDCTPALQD

[3] = system: Japanese medaka (Oryzias latipes); assay: Fish Short‐Term Reproduction Assay; type: in vivo; conditions: for GSI Female / GSI Male / HSI Female / HSI Male / Length Female / Length Male / Weight Female / Weight Male: completion of exposure
medaka Esr1 (mEsr1) [4] = target: T2, medaka Esr1 (mEsr1); assay: Medaka Esr1 reporter gene assay, antagonist assay; type: cell-based, Japanese medaka (Oryzias latipes); conditions: E2 spiked at 0.2 nM (A); MAC = 1.0 × 10^−5 M
medaka ARβ (mArβ) [5] = target: T1, medaka ARβ (mArβ); assay: Medaka ARβ reporter gene assay, agonist assay; type: cell-based, Japanese medaka (Oryzias latipes); conditions: MAC = 1.0 × 10^−5 M
[6] = 2.94 mg/L measured, 21 d, sig. ↑ vs control
[7] = 2.94 mg/L measured, 21 d, sig. ↓ vs control
[8] = measured concentration 0.311 mg/L
[9] = measured concentration 0.926 mg/L
[10] = measured concentration 2.94 mg/L

CCCOC(=O)c1ccc(O)cc1 [PPB, 4‐Hydroxybenzoate propyl]
Antagonistic activity (medaka ARβ (mArβ) [1]): NE (MAC = 1.0 × 10^−5 M)^(D)
EC50 (medaka Esr1 (mEsr1) [2]): 7 µM
In vitro positive: Esr (medaka Esr1 (mEsr1) [2]; mode of action in which EC50 or PC10 was obtained in RGA): Esr
Fertility rate ([3]; 0.311 mg/L measured, 21 d): 93 ± 3.1%
Hepatic VTG, female ([3]; 0.311 mg/L measured, 21 d): 1,190 ± 238 ng/mg‐liver
Mortality ([3]; 0.311 mg/L measured, 21 d): 0.0%
Mortality, number of dead fish ([3]; 0.311 mg/L measured, 21 d): 0
Number of fertilized eggs (per female per day) ([3]; 0.311 mg/L measured, 21 d): 26 ± 0.8
Number of total eggs (per female per day) ([3]; 0.311 mg/L measured, 21 d): 28 ± 1.6
SSC female (joint plates with papillary processes) ([3]; 0.311 mg/L measured, 21 d): 0 ± 0
Hepatic VTG, male ([3]; 0.311 mg/L measured, 21 d, sig. ↑ vs control): 23.7 ± 9.0 ng/mg‐liver
Fertility rate ([3]; 0.926 mg/L measured, 21 d): 94 ± 3.7%
Hepatic VTG, female ([3]; 0.926 mg/L measured, 21 d): 1,590 ± 271 ng/mg‐liver
Mortality ([3]; 0.926 mg/L measured, 21 d): 0.0%
Mortality, number of dead fish ([3]; 0.926 mg/L measured, 21 d): 0
Number of total eggs (per female per day) ([3]; 0.926 mg/L measured, 21 d): 23 ± 2.0
SSC female (joint plates with papillary processes) ([3]; 0.926 mg/L measured, 21 d): 0 ± 0
Hepatic VTG, male ([3]; 0.926 mg/L measured, 21 d, sig. ↑ vs control): 42.2 ± 36.8 ng/mg‐liver
Number of fertilized eggs (per female per day) ([3]; 0.926 mg/L measured, 21 d, sig. ↓ vs control): 22 ± 1.6
Mortality ([3]; 2.94 mg/L measured, 21 d): 0.0%
Mortality, number of dead fish ([3]; 2.94 mg/L measured, 21 d): 0
SSC female (joint plates with papillary processes) ([3]; 2.94 mg/L measured, 21 d): 0 ± 0
Hepatic VTG, female [3, 6]: 3,540 ± 1,080 ng/mg‐liver
Hepatic VTG, male [3, 6]: 4,170 ± 513 ng/mg‐liver
Fertility rate [3, 7]: 41 ± 23%
Number of total eggs (per female per day) [3, 7]: 10 ± 4.7
Change of hepatic VTG levels in females (in words) ([3]; 21 d): significant increase
Fecundity, number of total eggs (in words) ([3]; 21 d): statistically significant decrease
LOEC, elevated hepatic VTG in males ([3]; 21 d): 0.311 mg/L
LOECREPRO ([3]; LOEC on reproduction (fecundity and/or fertility)): 926 µg/L
minimal effective concentration ([3]; Oryzias latipes, 504 h, read-out: LOECmVTG): 0.311 µg/mL
LOECREPRO (reduction in fecundity or fertility) ([3]; concentrations without overt toxicity): 926 µg/L
LOECTOX ([3]; lowest observed effect concentration on mortality): ND (>2,940) μg/L
GSI Female [3, 8]: 10.0 ± 0.2%
GSI Male [3, 8]: 0.74 ± 0.14%
HSI Female [3, 8]: 5.4 ± 0.75%
HSI Male [3, 8]: 2.7 ± 0.98%
Length Female [3, 8]: 36.1 ± 0.2 mm
Length Male [3, 8]: 36.4 ± 1.3 mm
Weight Female [3, 8]: 525 ± 27 mg
Weight Male [3, 8]: 525 ± 13 mg
GSI Female [3, 9]: 9.9 ± 1.1%
GSI Male [3, 9]: 0.78 ± 0.05%
HSI Female [3, 9]: 5.1 ± 0.20%
HSI Male [3, 9]: 2.7 ± 0.23%
Length Female [3, 9]: 36.8 ± 0.8 mm
Length Male [3, 9]: 37.1 ± 1.7 mm
Weight Female [3, 9]: 539 ± 21 mg
Weight Male [3, 9]: 515 ± 49 mg
GSI Female [3, 10]: 10.0 ± 1.1%
GSI Male [3, 10]: 0.81 ± 0.21%
HSI Female [3, 10]: 4.3 ± 0.77%
HSI Male [3, 10]: 2.3 ± 0.14%
Length Female [3, 10]: 36.5 ± 1.5 mm
Length Male [3, 10]: 36.5 ± 0.9 mm
Weight Female [3, 10]: 549 ± 83 mg
Weight Male [3, 10]: 490 ± 26 mg
Antagonistic activity (medaka Esr1 (mEsr1) [4]): NE (MAC = 1.0 × 10^−5 M)^(A)
Agonistic activity (medaka ARβ (mArβ) [5]): NE (MAC = 1.0 × 10^−5 M)
